Test results taken from patent US12059393B2, “Compositions for topical treatment of radiation dermatitis” (Akos Biosciences, Inc, priority 2022, dated 2024).

Tested on: acute radiation-induced dermatitis
Assay: Blinded clinical dermatitis scoring in mouse radiation dermatitis model
Format: in vivo, Balb/c mice
Design: key to Dermatitis score (mean): dermatitis scale 0 to 5, 1.0-unit increments
Details: for Dermatitis score % Change Group 4 vs. Group 3: 30 mg/mL CBD vs olive oil only; for Dermatitis score % Change Group 4 vs. Group 2: 30 mg/mL CBD vs radiation only; for Dermatitis score (mean): Group 4 (30 mg/mL CBD)
Method: A study was performed on mice to determine the efficacy of topically-dosed CBD in an olive oil vehicle for the treatment of acute radiation-induced dermatitis. Three different CBD dosages were used— 30 mg/mL (3 wt %), 120 mg/mL (12 wt %), and 250 mg/mL (25 wt %).
144 female Balb/c mice with an average starting body weight (±SEM) of 17.96±0.12 grams were randomized into six (6) groups of 24 animals each, as follows:
The control group (Group 1) was not irradiated. The animals in Groups 2-6 were anesthetized via a single intraperitoneal injection of xylazine and ketamine prior to being administered a single dose of 30 Grays (Gy) of radiation directed at a 2 cm×4 cm patch of shaved dorsal skin on Day 0. Radiation was generated by a 160 kVp (15-ma) X-ray source at a focal distance of 10 cm, hardened with a 0.35 mm Cu filtration system at a rate of approximately 3.2 Gy/minute.
Dosing for animals in Groups 3-6 began on Day 0 immediately after radiation. Treatments were administered topically (0.1 mL per animal) daily from Days 0-28.
Starting on Day 8 and continuing every other day thereafter (Days 8-28), each animal was evaluated for skin redness and dermatitis, and photographed for subsequent blinded scoring of dermatitis at the completion of the study. Body weight was taken daily.
Dermatitis was measured by blinded scoring of photographs at the end of the study. Two independent observers graded the photographs, and results were reported on a scale of 0 to 5 in 1.0 unit increments. The scale is described in the table below:
Data were evaluated using one-way ANOVA with Dunnett's multiple comparisons test to compare all groups to the vehicle control group using GraphPad Prism 8.4.3 (La Jolla, CA Duration of dermatitis data was evaluated using the Chi-square test to compare all groups to the vehicle-control group and radiation only group using SigmaPlot 11.0 (Systat Software, Inc.). Statistical significance was achieved when p<0.05.
The following table provides information on the duration of moderate dermatitis, which is defined as the number of days on which scores were at least 2
Bold values indicate a decrease (improvement), and underlined values indicate an increase (worsening).

[1] = 30 mg/mL CBD, 148 total animal days
[2] = 120 mg/mL CBD, 148 total animal days
[3] = 150 mg/mL CBD, 147 total animal days

## C=C(C)[C@@H]1CCC(C)=C[C@H]1c1c(O)cc(CCCCC)cc1O [CBD, 2-[(1R,6R)-6-Isopropenyl-3-methylcyclohex-2-en-1-yl]-5-pentylbenzene-1,3-diol]
30 mg/mL CBD
  % Days ≥2: 50.68%
30 mg/mL CBD (Group 4)
  Mean dermatitis scores compared against Group 2 (radiation only) and Group 3 (olive oil only): consistently decreased mean dermatitis scores
  Percentage of days with moderate dermatitis compared to the Olive oil only group (Group 3): significantly lower
30 mg/mL CBD (Group 4), majority of surveyed days, vs olive oil only group
  Percentages of animals with moderate or severe dermatitis: reduced percentages of animals with moderate or severe dermatitis
Day 8
  Dermatitis score % Change Group 4 vs. Group 3: −22.22%
  Dermatitis score % Change Group 4 vs. Group 2: 101.92%
  Dermatitis score (mean): 0.88
Day 10
  Dermatitis score % Change Group 4 vs. Group 3: −18.75%
  Dermatitis score % Change Group 4 vs. Group 2: 10.80%
  Dermatitis score (mean): 1.63
Day 12
  Dermatitis score % Change Group 4 vs. Group 3: −21.62%
  Dermatitis score % Change Group 4 vs. Group 2: −15.04%
  Dermatitis score (mean): 1.81
Day 14
  Dermatitis score % Change Group 4 vs. Group 3: −20.00%
  Dermatitis score % Change Group 4 vs. Group 2: −8.78%
  Dermatitis score (mean): 2.25
Day 16
  Dermatitis score % Change Group 4 vs. Group 3: −23.33%
  Dermatitis score % Change Group 4 vs. Group 2: −29.72%
  Dermatitis score (mean): 1.92
Day 18
  Dermatitis score % Change Group 4 vs. Group 3: −34.62%
  Dermatitis score % Change Group 4 vs. Group 2: −35.07%
  Dermatitis score (mean): 1.42
Day 20
  Dermatitis score % Change Group 4 vs. Group 3: −38.10%
  Dermatitis score % Change Group 4 vs. Group 2: −43.25%
  Dermatitis score (mean): 1.08
Day 22
  Dermatitis score % Change Group 4 vs. Group 3: −17.65%
  Dermatitis score % Change Group 4 vs. Group 2: −32.46%
  Dermatitis score (mean): 1.17
Day 24
  Dermatitis score % Change Group 4 vs. Group 3: −23.53%
  Dermatitis score % Change Group 4 vs. Group 2: −40.42%
  Dermatitis score (mean): 1.08
Day 26
  Dermatitis score % Change Group 4 vs. Group 3: −29.41%
  Dermatitis score % Change Group 4 vs. Group 2: −42.11%
  Dermatitis score (mean): 1.00
Day 28
  Dermatitis score % Change Group 4 vs. Group 3: −31.25%
  Dermatitis score % Change Group 4 vs. Group 2: −46.93%
  Dermatitis score (mean): 0.92
30 mg/mL CBD, Day 8
  Percentage of Animals with Moderate Dermatitis (≥2): 18.8%
  Percentage of Animals with Moderate Dermatitis (≥3): 0%
30 mg/mL CBD, Day 10
  Percentage of Animals with Moderate Dermatitis (≥2): 75%
  Percentage of Animals with Moderate Dermatitis (≥3): 6.3%
30 mg/mL CBD, Day 12
  Percentage of Animals with Moderate Dermatitis (≥2): 81.3%
  Percentage of Animals with Moderate Dermatitis (≥3): 18.8%
30 mg/mL CBD, Day 14
  Percentage of Animals with Moderate Dermatitis (≥2): 75%
  Percentage of Animals with Moderate Dermatitis (≥3): 56.3%
30 mg/mL CBD, Day 16
  Percentage of Animals with Moderate Dermatitis (≥2): 75%
  Percentage of Animals with Moderate Dermatitis (≥3): 41.7%
30 mg/mL CBD, Day 18
  Percentage of Animals with Moderate Dermatitis (≥2): 66.7%
  Percentage of Animals with Moderate Dermatitis (≥3): 0%
30 mg/mL CBD, Day 20
  Percentage of Animals with Moderate Dermatitis (≥2): 33.3%
  Percentage of Animals with Moderate Dermatitis (≥3): 0%
30 mg/mL CBD, Day 22
  Percentage of Animals with Moderate Dermatitis (≥2): 47.7%
  Percentage of Animals with Moderate Dermatitis (≥3): 0%
30 mg/mL CBD, Day 24
  Percentage of Animals with Moderate Dermatitis (≥2): 33.3%
  Percentage of Animals with Moderate Dermatitis (≥3): 0%
30 mg/mL CBD, Day 26
  Percentage of Animals with Moderate Dermatitis (≥2): 25%
  Percentage of Animals with Moderate Dermatitis (≥3): 0%
30 mg/mL CBD, Day 28
  Percentage of Animals with Moderate Dermatitis (≥2): 16.7%
  Percentage of Animals with Moderate Dermatitis (≥3): 0%
[1]
  Days <2 (animal days): 73
  Days ≥2 (duration of moderate dermatitis, animal days): 75
120 mg/mL CBD
  % Days ≥2: 59.46%
120 mg/mL CBD, Day 8
  Percentage of Animals with Moderate Dermatitis (≥2): 18.8%
  Percentage of Animals with Moderate Dermatitis (≥3): 0%
120 mg/mL CBD, Day 10
  Percentage of Animals with Moderate Dermatitis (≥2): 87.5%
  Percentage of Animals with Moderate Dermatitis (≥3): 6.3%
120 mg/mL CBD, Day 12
  Percentage of Animals with Moderate Dermatitis (≥2): 93.8%
  Percentage of Animals with Moderate Dermatitis (≥3): 50%
120 mg/mL CBD, Day 14
  Percentage of Animals with Moderate Dermatitis (≥2): 100%
  Percentage of Animals with Moderate Dermatitis (≥3): 75%
120 mg/mL CBD, Day 16
  Percentage of Animals with Moderate Dermatitis (≥2): 83.3%
  Percentage of Animals with Moderate Dermatitis (≥3): 25%
120 mg/mL CBD, Day 18
  Percentage of Animals with Moderate Dermatitis (≥2): 83.3%
  Percentage of Animals with Moderate Dermatitis (≥3): 8.3%
120 mg/mL CBD, Day 20
  Percentage of Animals with Moderate Dermatitis (≥2): 58.3%
  Percentage of Animals with Moderate Dermatitis (≥3): 0%
120 mg/mL CBD, Day 22
  Percentage of Animals with Moderate Dermatitis (≥2): 33.3%
  Percentage of Animals with Moderate Dermatitis (≥3): 0%
120 mg/mL CBD, Day 24
  Percentage of Animals with Moderate Dermatitis (≥2): 33.3%
  Percentage of Animals with Moderate Dermatitis (≥3): 0%
120 mg/mL CBD, Day 26
  Percentage of Animals with Moderate Dermatitis (≥2): 33.3%
  Percentage of Animals with Moderate Dermatitis (≥3): 0%
120 mg/mL CBD, Day 28
  Percentage of Animals with Moderate Dermatitis (≥2): 8.3%
  Percentage of Animals with Moderate Dermatitis (≥3): 0%
[2]
  Days <2 (animal days): 60
  Days ≥2 (duration of moderate dermatitis, animal days): 88
[3]
  Days <2 (animal days): 57
  Days ≥2 (duration of moderate dermatitis, animal days): 90
250 mg/mL CBD, Day 8
  Percentage of Animals with Moderate Dermatitis (≥2): 12.5%
  Percentage of Animals with Moderate Dermatitis (≥3): 6.3%
250 mg/mL CBD, Day 10
  Percentage of Animals with Moderate Dermatitis (≥2): 75%
  Percentage of Animals with Moderate Dermatitis (≥3): 12.5%
250 mg/mL CBD, Day 12
  Percentage of Animals with Moderate Dermatitis (≥2): 100%
  Percentage of Animals with Moderate Dermatitis (≥3): 62.5%
250 mg/mL CBD, Day 14
  Percentage of Animals with Moderate Dermatitis (≥2): 93.8%
  Percentage of Animals with Moderate Dermatitis (≥3): 93.3%
250 mg/mL CBD, Day 16
  Percentage of Animals with Moderate Dermatitis (≥2): 93.7%
  Percentage of Animals with Moderate Dermatitis (≥3): 75%
250 mg/mL CBD, Day 18
  Percentage of Animals with Moderate Dermatitis (≥2): 83.3%
  Percentage of Animals with Moderate Dermatitis (≥3): 58.3%
250 mg/mL CBD, Day 20
  Percentage of Animals with Moderate Dermatitis (≥2): 66.7%
  Percentage of Animals with Moderate Dermatitis (≥3): 25%
250 mg/mL CBD, Day 22
  Percentage of Animals with Moderate Dermatitis (≥2): 33.3%
  Percentage of Animals with Moderate Dermatitis (≥3): 0%
250 mg/mL CBD, Day 24
  Percentage of Animals with Moderate Dermatitis (≥2): 50%
  Percentage of Animals with Moderate Dermatitis (≥3): 0%
250 mg/mL CBD, Day 26
  Percentage of Animals with Moderate Dermatitis (≥2): 50%
  Percentage of Animals with Moderate Dermatitis (≥3): 0%
250 mg/mL CBD, Day 28
  Percentage of Animals with Moderate Dermatitis (≥2): 0%
  Percentage of Animals with Moderate Dermatitis (≥3): 0%
All CBD-treated groups (Groups 4, 5, 6)
  Percentage of days with moderate dermatitis compared to the irradiated group (Group 2): significantly lower
